# From the supplement of paper PMC11208160
# Assay: recombinant barcode read abundance after kanamycin selection (control-corrected) (log10(CPM+1)); higher = more efficient recombination; sequences stand for … in AGTGCAGAGAAAATCGGCCAGTTTTCTCTGCCTGCAGTCCGCATGCCGT…AGATTTATGCAGCGGACTGCCTTTCTCCCAAAGTGATAAACCGGACAGTATCATGGACCGGTTTTCCCGGTAATCCGTATTTGCAAGGTTGGTTTCACT; site = the 11-nt target
# In short: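 Two replicates per condition were plated: chloramphenicol/ampicillin LB agar for the control, and chloramphenicol/ampicillin/kanamycin with 0.1 mM IPTG for selection. The pooled E. coli screen behind them paired targets with IS621 bridge RNA target-binding loops. Recombination efficiency is expressed from averaged, control-corrected barcode counts per million at recombinant junctions, as log10(CPM+1).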
# 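Further: IS621 recombinase and bridge RNA in Escherichia coli cells.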
row,Sequence,recombinant barcode read abundance (log10)
1,TACGTGTCTTGGGTTCTAACCTGTTGCCT (site TAGGTGTCTAG),0.0617
2,TACGTGTCTTGGGTTCTAACCTGTTGCCT (site TATGTGTCTAG),0.103
3,TACTAAGCTTGGGTTCTAACCTGTTGCCT (site TACTAAGCTAA),0
4,TACTAAGCTTGGGTTCTAACCTGTTGCCT (site TACTAAGCTAC),0.098
5,TACTAAGCTTGGGTTCTAACCTGTTGCCT (site TACTAAGCTAG),0.495
6,TACTAAGCTTGGGTTCTAACCTGTTGCCT (site TACTAAGCTAT),0.171
7,TACTATGCTTGGGTTCTAACCTGTTGCGA (site TACTATGCTTC),0.41
8,TACTATGCTTGGGTTCTAACCTGTTGCGA (site TCCTATTCTTC),0
9,TACTATTCTTGGGTTCTAACCTGTTGCCT (site TACTATACTAG),0.0693
10,TACTATTCTTGGGTTCTAACCTGTTGCCT (site TACTATCCTAG),0.0345
11,TACTATTCTTGGGTTCTAACCTGTTGCCT (site TACTATGCTAG),0.175
12,TACTATTCTTGGGTTCTAACCTGTTGCCT (site TACTATTCTAG),0.263
13,TACTGCTCTTGGGTTCTAACCTGTTGCTT (site TACAGCTCTAA),0.0305
14,TACTGCTCTTGGGTTCTAACCTGTTGCTT (site TACCGCTCTAA),0.213
15,TACTGCTCTTGGGTTCTAACCTGTTGCTT (site TACGGCTCTAA),0.0516
16,TACTGCTCTTGGGTTCTAACCTGTTGCTT (site TACTGCTCTAA),0.296
17,TACTTAACTTGGGTTCTAACCTGTTGCCT (site TACTAAACTAG),0.119
18,TACTTAACTTGGGTTCTAACCTGTTGCCT (site TACTCAACTAG),0.00663
19,TACTTAACTTGGGTTCTAACCTGTTGCCT (site TACTGAACTAG),0.0656
20,TACTTAACTTGGGTTCTAACCTGTTGCCT (site TACTTAACTAG),0.134
21,TACTTCCCTTGGGTTCTAACCTGTTGCGT (site TACTTCCCTAC),1.87
22,TACTTCCCTTGGGTTCTAACCTGTTGCGT (site TACTTCTCTAG),0.0128

row,Sequence,recombinant barcode read abundance (log10)
1,TACTTCTCTTGGGTTCTAACCTGTTGCCT (site TACTTCCCTAC),0.211
2,TACTTCTCTTGGGTTCTAACCTGTTGCCT (site TACTTCTCTAG),0.764
3,TACTTGCCTTGGGTTCTAACCTGTTGCCT (site TAATTGCCTAG),0.0842
4,TACTTGCCTTGGGTTCTAACCTGTTGCCT (site TACTTGCCTAG),0.804
5,TACTTGCCTTGGGTTCTAACCTGTTGCCT (site TAGTTGCCTAG),0.653
6,TACTTGCCTTGGGTTCTAACCTGTTGCCT (site TATTTGCCTAG),0.182
7,TAGAACTCTTGGGTTCTAACCTGTTGCCA (site TAGAACTCTAG),0.254
8,TAGAACTCTTGGGTTCTAACCTGTTGCCA (site TAGAACTCTCG),0.23
9,TAGAACTCTTGGGTTCTAACCTGTTGCCA (site TAGAACTCTGG),0.0926
10,TAGAACTCTTGGGTTCTAACCTGTTGCCA (site TAGAACTCTTG),0.193
11,TAGAAGACTTGGGTTCTAACCTGTTGCTA (site TAGAAGACTAA),0.115
12,TAGAAGACTTGGGTTCTAACCTGTTGCTA (site TAGAAGACTCA),0.487
13,TAGAAGACTTGGGTTCTAACCTGTTGCTA (site TAGAAGACTGA),0.155
14,TAGAAGACTTGGGTTCTAACCTGTTGCTA (site TAGAAGACTTA),1.55
15,TAGAAGACTTGGGTTCTAACCTGTTGCTG (site TAGAAGACTAA),0.128
16,TAGAAGACTTGGGTTCTAACCTGTTGCTG (site TAGAAGACTCA),2.38
17,TAGAAGACTTGGGTTCTAACCTGTTGCTG (site TAGAAGACTGA),0.315
18,TAGAAGACTTGGGTTCTAACCTGTTGCTG (site TAGAAGACTTA),0.639
19,TAGAAGCCTTGGGTTCTAACCTGTTGCTA (site TAGAAGCCTTA),0.463
20,TAGAAGCCTTGGGTTCTAACCTGTTGCTA (site TAGAAGGCTTA),0.21
21,TAGAAGGCTTGGGTTCTAACCTGTTGCAT (site TAGAAGGCTAA),0.162
22,TAGAAGGCTTGGGTTCTAACCTGTTGCAT (site TAGAAGGCTAC),0.0752

row,Sequence,recombinant barcode read abundance (log10)
1,TAGAAGGCTTGGGTTCTAACCTGTTGCAT (site TAGAAGGCTAG),0.161
2,TAGAAGGCTTGGGTTCTAACCTGTTGCAT (site TAGAAGGCTAT),1.97
3,TAGAATCCTTGGGTTCTAACCTGTTGCAT (site TAGAATCCTAT),0.104
4,TAGAATCCTTGGGTTCTAACCTGTTGCAT (site TAGAATCCTCT),0.102
5,TAGAATCCTTGGGTTCTAACCTGTTGCAT (site TAGAATCCTGT),0.0579
6,TAGAATCCTTGGGTTCTAACCTGTTGCAT (site TAGAATCCTTT),0.241
7,TAGAATGCTTGGGTTCTAACCTGTTGCCT (site TAGAATGCTAA),0.133
8,TAGAATGCTTGGGTTCTAACCTGTTGCCT (site TAGAATGCTAG),0.921
9,TAGACATCTTGGGTTCTAACCTGTTGCTC (site TAGACATCTGA),0.323
10,TAGACATCTTGGGTTCTAACCTGTTGCTC (site TAGCCATCTGA),0.0147
11,TAGACATCTTGGGTTCTAACCTGTTGCTC (site TAGGCATCTGA),0.0149
12,TAGACATCTTGGGTTCTAACCTGTTGCTC (site TAGTCATCTGA),0.016
13,TAGACCTCTTGGGTTCTAACCTGTTGCCT (site AAGACCTCTAG),0.113
14,TAGACCTCTTGGGTTCTAACCTGTTGCCT (site TAGACCTCTAG),1.86
15,TAGACTACTTGGGTTCTAACCTGTTGCTT (site TAGACTACTAA),0.0704
16,TAGACTACTTGGGTTCTAACCTGTTGCTT (site TAGACTACTCA),0.0933
17,TAGACTACTTGGGTTCTAACCTGTTGCTT (site TAGACTACTGA),0.0122
18,TAGACTACTTGGGTTCTAACCTGTTGCTT (site TAGACTACTTA),0.137
19,TAGACTGCTTGGGTTCTAACCTGTTGCCT (site TAGACTGCTAG),1.04
20,TAGACTGCTTGGGTTCTAACCTGTTGCCT (site TAGCCTGCTAG),0.224
21,TAGACTGCTTGGGTTCTAACCTGTTGCCT (site TAGGCTGCTAG),0.107
22,TAGACTGCTTGGGTTCTAACCTGTTGCCT (site TAGTCTGCTAG),0.451

row,Sequence,recombinant barcode read abundance (log10)
1,TAGAGGACTTGGGTTCTAACCTGTTGCAG (site TACAGGACTCT),0.0593
2,TAGAGGACTTGGGTTCTAACCTGTTGCAG (site TAGAGGACTCT),2.23
3,TAGATCGCTTGGGTTCTAACCTGTTGCAG (site TAGATCGCTCT),1.44
4,TAGATCGCTTGGGTTCTAACCTGTTGCAG (site TAGGTCGCTAT),0.266
5,TAGCACACTTGGGTTCTAACCTGTTGCCG (site TAGCACACTCG),1.51
6,TAGCACACTTGGGTTCTAACCTGTTGCCG (site TCGCACACTCA),0.0962
7,TAGCACCCTTGGGTTCTAACCTGTTGCCC (site TAGCACCCTAG),0.681
8,TAGCACCCTTGGGTTCTAACCTGTTGCCC (site TAGCACCCTCG),0.642
9,TAGCACCCTTGGGTTCTAACCTGTTGCCC (site TAGCACCCTGG),1.69
10,TAGCACCCTTGGGTTCTAACCTGTTGCCC (site TAGCACCCTTG),0.0312
11,TAGCAGACTTGGGTTCTAACCTGTTGCCT (site TAGCAGACTAG),1.45
12,TAGCAGACTTGGGTTCTAACCTGTTGCCT (site TAGCCGACTAG),0.034
13,TAGCAGACTTGGGTTCTAACCTGTTGCCT (site TAGCGGACTAG),0.0243
14,TAGCAGACTTGGGTTCTAACCTGTTGCCT (site TAGCTGACTAG),0.0224
15,TAGCATACTTGGGTTCTAACCTGTTGCCG (site TAGCATACTAG),0.271
16,TAGCATACTTGGGTTCTAACCTGTTGCCG (site TAGCATACTCG),0.861
17,TAGCATACTTGGGTTCTAACCTGTTGCCG (site TAGCATACTGG),0.06
18,TAGCATACTTGGGTTCTAACCTGTTGCCG (site TAGCATACTTG),0.198
19,TAGCCACCTTGGGTTCTAACCTGTTGCCT (site AAGCCACCTAG),0.151
20,TAGCCACCTTGGGTTCTAACCTGTTGCCT (site CAGCCACCTAG),0.917
